Reference: patent publication US9212182B2, “Bicyclic sulfonamide compounds as sodium channel inhibitors” (AMGEN INC., priority 2013, dated 2015)
Read-outs that look alike come from different tables or passages of the source.

Biological target: Nav 1.7 (Homo sapiens (Human), UniProt Q15858)
Experiment: in-vitro Nav 1.7 PX (IC50)
Assay type: cell-based
[1] = in-vitro Nav 1.7 PX data (PatchXpress)

Nav 1.7, sequence (Q15858 whole entry): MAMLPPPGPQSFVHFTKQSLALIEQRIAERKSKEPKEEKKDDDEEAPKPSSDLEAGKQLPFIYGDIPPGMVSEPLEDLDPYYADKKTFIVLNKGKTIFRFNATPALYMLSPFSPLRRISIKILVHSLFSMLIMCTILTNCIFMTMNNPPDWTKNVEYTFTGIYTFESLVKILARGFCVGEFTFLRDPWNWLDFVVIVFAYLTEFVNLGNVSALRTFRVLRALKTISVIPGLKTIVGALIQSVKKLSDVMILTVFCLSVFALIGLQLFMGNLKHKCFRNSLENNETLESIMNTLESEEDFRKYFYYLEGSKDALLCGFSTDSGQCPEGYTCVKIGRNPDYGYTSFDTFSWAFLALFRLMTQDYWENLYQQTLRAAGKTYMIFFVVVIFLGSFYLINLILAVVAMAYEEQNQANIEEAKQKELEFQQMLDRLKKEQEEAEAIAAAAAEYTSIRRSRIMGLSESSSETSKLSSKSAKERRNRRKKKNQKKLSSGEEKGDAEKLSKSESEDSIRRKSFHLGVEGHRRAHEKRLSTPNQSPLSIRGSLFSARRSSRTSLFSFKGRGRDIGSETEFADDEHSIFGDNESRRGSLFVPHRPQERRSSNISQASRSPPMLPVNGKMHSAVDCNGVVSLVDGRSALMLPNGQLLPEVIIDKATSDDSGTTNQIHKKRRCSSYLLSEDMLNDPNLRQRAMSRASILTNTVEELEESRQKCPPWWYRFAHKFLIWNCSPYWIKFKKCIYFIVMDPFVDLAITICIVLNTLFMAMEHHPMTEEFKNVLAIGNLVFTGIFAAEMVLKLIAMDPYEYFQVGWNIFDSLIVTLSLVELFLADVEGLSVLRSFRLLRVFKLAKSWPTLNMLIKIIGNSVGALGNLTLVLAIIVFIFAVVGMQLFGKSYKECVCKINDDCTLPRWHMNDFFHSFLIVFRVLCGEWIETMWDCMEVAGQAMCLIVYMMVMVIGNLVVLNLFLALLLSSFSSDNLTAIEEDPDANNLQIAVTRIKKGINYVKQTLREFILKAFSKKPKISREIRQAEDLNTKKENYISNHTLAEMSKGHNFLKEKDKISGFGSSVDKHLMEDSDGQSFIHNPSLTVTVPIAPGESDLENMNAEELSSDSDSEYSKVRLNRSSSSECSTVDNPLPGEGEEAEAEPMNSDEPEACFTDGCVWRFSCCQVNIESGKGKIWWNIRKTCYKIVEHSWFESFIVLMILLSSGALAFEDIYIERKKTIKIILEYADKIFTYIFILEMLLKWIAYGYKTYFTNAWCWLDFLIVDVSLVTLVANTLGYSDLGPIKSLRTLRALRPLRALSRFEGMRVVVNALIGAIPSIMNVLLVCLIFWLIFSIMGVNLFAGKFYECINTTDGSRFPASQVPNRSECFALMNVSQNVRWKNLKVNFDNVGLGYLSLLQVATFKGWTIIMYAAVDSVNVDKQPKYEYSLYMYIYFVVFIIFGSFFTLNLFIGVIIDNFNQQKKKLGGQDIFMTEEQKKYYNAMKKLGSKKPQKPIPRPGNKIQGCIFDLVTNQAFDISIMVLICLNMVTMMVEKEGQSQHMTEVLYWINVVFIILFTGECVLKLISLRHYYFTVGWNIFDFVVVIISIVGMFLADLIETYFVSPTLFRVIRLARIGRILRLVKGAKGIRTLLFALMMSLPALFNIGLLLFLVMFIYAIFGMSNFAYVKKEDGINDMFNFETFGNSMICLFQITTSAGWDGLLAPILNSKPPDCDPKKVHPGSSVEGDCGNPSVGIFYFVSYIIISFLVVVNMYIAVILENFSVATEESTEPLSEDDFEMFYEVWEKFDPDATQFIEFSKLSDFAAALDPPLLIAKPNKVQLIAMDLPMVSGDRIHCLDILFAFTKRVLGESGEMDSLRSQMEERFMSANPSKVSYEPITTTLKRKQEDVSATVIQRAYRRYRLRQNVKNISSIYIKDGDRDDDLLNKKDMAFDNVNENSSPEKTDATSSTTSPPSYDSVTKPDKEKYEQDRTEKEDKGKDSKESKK

Question: For `N#CCOc1cc(Br)c(F)cc1-n1c(=O)ccc2cc(S(=O)(=O)Nc3ccon3)ccc21` [Example 623, 1-(4-bromo-2-(cyanomethoxy)-5-fluorophenyl)-N-(isoxazol-3-yl)-2-oxo-1,2-dihydroquinoline-6-sulfonamide], which IC50 [1] is on record?
Answer: 7780 nM

Question: For `COc1ccc(C#CC2CCCC2)cc1-n1c(=O)ccc2cc(S(=O)(=O)Nc3ccon3)ccc21` [Example 1147, 1-(5-(cyclopentylethynyl)-2-methoxyphenyl)-N-3-isoxazolyl-2-oxo-1,2-dihydro-6-quinolinesulfonamide], which IC50 is on record?
Answer: 121 nM

Question: For `COc1ccc(-c2ccc(F)cc2F)cc1-n1c(=O)ccc2cc(S(=O)(=O)Nc3ccon3)ccc21` [Example 837, 1-(2′,4′-difluoro-4-methoxy-3-biphenylyl)-N-3-isoxazolyl-2-oxo-1,2-dihydro-6-quinolinesulfonamide], which IC50 (in-vitro Nav 1.7 PX data) is on record?
Answer: 178 nM

Question: Which IC50 [1] does the source give for `COc1cc(-c2cc(Cl)ccc2F)ccc1-n1c(=O)ccc2cc(S(=O)(=O)Nc3ccon3)ccc21` [Example 1034, 1-(5′-chloro-2′-fluoro-3-methoxy-4-biphenylyl)-N-3-isoxazolyl-2-oxo-1,2-dihydro-6-quinolinesulfonamide] here?
Answer: 10 nM

Question: With `COc1cc(CC2C[C@@H]3CC[C@@H]2C3)c(F)cc1-n1c(=O)ccc2cc(S(=O)(=O)Nc3ccon3)ccc21` (stereo partly shown) [Example 1082] as the compound, how does the IC50 (in-vitro Nav 1.7 PX data) read?
Answer: 9 nM

Question: `COc1ccc(-c2cc(OC)c(-n3c(=O)ccc4cc(S(=O)(=O)Nc5ccon5)ccc43)cc2F)cc1F` [Example 705, 1-(2,3′-difluoro-4′,5-dimethoxy-4-biphenylyl)-N-3-isoxazolyl-2-oxo-1,2-dihydro-6-quinolinesulfonamide] was tested. Which IC50 (in-vitro Nav 1.7 PX data) did it give?
Answer: 41 nM

Question: `COc1ccc(-c2ccccc2F)cc1-n1c(=O)ccc2cc(S(=O)(=O)Nc3ccon3)ccc21` [Example 836, 1-(2′-fluoro-4-methoxy-3-biphenylyl)-N-3-isoxazolyl-2-oxo-1,2-dihydro-6-quinolinesulfonamide] was tested. Which IC50 (in-vitro Nav 1.7 PX data) did it give?
Answer: 120 nM

Question: `COc1cc(-c2cccc(C(F)(F)F)c2)ccc1-n1c(=O)ccc2cc(S(=O)(=O)Nc3ncccn3)c(F)cc21` [Example 982, 7-fluoro-1-(3-methoxy-3′-(trifluoromethyl)-4-biphenylyl)-2-oxo-N-2-pyrimidinyl-1,2-dihydro-6-quinolinesulfonamide] was tested. Which IC50 (in-vitro Nav 1.7 PX data) did it give?
Answer: 38 nM

Question: `COc1cc(-c2ccc(C)c(F)c2)c(F)cc1-n1c(=O)ccc2cc(S(=O)(=O)Nc3cccnn3)ccc21` [Example 1128, 1-(2,3′-difluoro-5-methoxy-4′-methyl-4-biphenylyl)-2-oxo-N-3-pyridazinyl-1,2-dihydro-6-quinolinesulfonamide] was tested. Which IC50 (in-vitro Nav 1.7 PX data) did it give?
Answer: 36 nM

Question: How did the IC50 [1] turn out when `COc1cc(-c2cc(Cl)ccc2C)ccc1-n1c(=O)ccc2cc(S(=O)(=O)Nc3ncco3)ccc21` [Example 1067, 1-(5′-chloro-3-methoxy-2′-methyl-4-biphenylyl)-N-1,3-oxazol-2-yl-2-oxo-1,2-dihydro-6-quinolinesulfonamide] was run?
Answer: 6 nM

Question: `COc1cc(-c2ccc(Cl)c(C#N)c2)c(F)cc1-n1c(=O)ccc2cc(S(=O)(=O)Nc3ncc(F)cn3)ccc21` [Example 893, 1-(4′-chloro-3′-cyano-2-fluoro-5-methoxy-4-biphenylyl)-N-(5-fluoro-2-pyrimidinyl)-2-oxo-1,2-dihydro-6-quinolinesulfonamide] was tested. Which IC50 (in-vitro Nav 1.7 PX data) did it give?
Answer: 13 nM

Question: For `COc1cc(C[C@@H]2CCOC2)c(F)cc1-n1c(=O)ccc2cc(S(=O)(=O)Nc3ccon3)ccc21` [Example 1123, 1-(5-fluoro-2-methoxy-4-((3R)-tetrahydro-3-furanylmethyl)phenyl)-N-3-isoxazolyl-2-oxo-1,2-dihydro-6-quinolinesulfonamide, 1-(5-fluoro-2-methoxy-4-((3S)-tetrahydro-3-furanylmethyl)phenyl)-N-3-isoxazolyl-2-oxo-1,2-dihydro-6-quinolinesulfonamide], which IC50 (in-vitro Nav 1.7 PX data) is on record?
Answer: 1600 nM

Question: For `COc1ccc(-c2ccc(C(F)(F)F)cc2)cc1-n1c(=O)ccc2cc(S(=O)(=O)Nc3ccon3)ccc21` [Example 843, N-3-isoxazolyl-1-(4-methoxy-4′-(trifluoromethyl)-3-biphenylyl)-2-oxo-1,2-dihydro-6-quinolinesulfonamide], which IC50 (in-vitro Nav 1.7 PX data) is on record?
Answer: 23 nM

Question: How did the IC50 [1] turn out when `O=c1ccc2cc(S(=O)(=O)Nc3nncs3)ccc2n1-c1ccc(-c2cc(F)cc(F)c2)cc1C1CC1` [Example 1046, 1-(3-cyclopropyl-3′,5′-difluoro-4-biphenylyl)-2-oxo-N-1,3,4-thiadiazol-2-yl-1,2-dihydro-6-quinolinesulfonamide] was run?
Answer: 112 nM

Question: How did the IC50 (in-vitro Nav 1.7 PX data) turn out when `COc1cc(-c2cc(Cl)cnc2OC)ccc1-n1c(=O)ccc2cc(S(=O)(=O)Nc3ccon3)ccc21` [Example 813, 1-(4-(5-chloro-2-methoxy-3-pyridinyl)-2-methoxyphenyl)-N-3-isoxazolyl-2-oxo-1,2-dihydro-6-quinolinesulfonamide] was run?
Answer: 101 nM

Question: How did the IC50 turn out when `COc1cc(-c2cc(C)cc(Cl)c2)ccc1-n1c(=O)ccc2cc(S(=O)(=O)Nc3ccon3)ccc21` (atropisomer, axis not shown; (P)) [Example 585, (P)-1-(3′-chloro-3-methoxy-5′-methyl-4-biphenylyl)-N-3-isoxazolyl-2-oxo-1,2-dihydro-6-quinolinesulfonamide] was run?
Answer: 8 nM

Question: How did the IC50 turn out when `COc1cc(-c2cccc(F)c2)c(Cl)cc1-n1c(=O)cc(C)c2cc(S(=O)(=O)Nc3ccon3)ccc21` [Example 567, 1-(2-chloro-3′-fluoro-5-methoxy-4-biphenylyl)-N-3-isoxazolyl-4-methyl-2-oxo-1,2-dihydro-6-quinolinesulfonamide] was run?
Answer: 162 nM

Question: `COc1ccc(-c2cccc(C(F)(F)F)c2)cc1-n1c(=O)ccc2cc(S(=O)(=O)Nc3ccon3)ccc21` (atropisomer, axis not shown; (P)) [Example 381, (P)—N-3-isoxazolyl-1-(4-methoxy-3′-(trifluoromethyl)-3-biphenylyl)-2-oxo-1,2-dihydro-6-quinolinesulfonamide] was tested. Which IC50 did it give?
Answer: 15 nM

Question: `COc1ccc(-c2ccc(Cl)cc2)cc1-n1c(=O)ccc2cc(S(=O)(=O)Nc3ccon3)ccc21` [Example 845, 1-(4′-chloro-4-methoxy-3-biphenylyl)-N-3-isoxazolyl-2-oxo-1,2-dihydro-6-quinolinesulfonamide] was tested. Which IC50 (in-vitro Nav 1.7 PX data) did it give?
Answer: 57 nM

Question: With `COc1cc(-c2cc(F)cc(Cl)c2)c(F)cc1-n1c(=O)ccc2cc(S(=O)(=O)Nc3ncc(F)cn3)ccc21` (atropisomer, axis not shown; (P)) [Example 544, (P)-1-(3′-chloro-2,5′-difluoro-5-methoxy-4-biphenylyl)-N-(5-fluoro-2-pyrimidinyl)-2-oxo-1,2-dihydro-6-quinolinesulfonamide] as the compound, how does the IC50 read?
Answer: 14 nM

Question: How did the IC50 turn out when `COc1cc(-c2ccc(F)c(Cl)c2)ccc1-n1c(=O)ccc2cc(S(=O)(=O)Nc3ccon3)ccc21` (atropisomer, axis not shown; (M)) [Example 577, (M)-1-(3′-chloro-4′-fluoro-3-methoxy-4-biphenylyl)-N-3-isoxazolyl-2-oxo-1,2-dihydro-6-quinolinesulfonamide] was run?
Answer: 7140 nM

Question: For `COc1cc(-c2ccccc2C(F)(F)F)ccc1-n1c(=O)ccc2cc(S(=O)(=O)Nc3ccon3)ccc21` [Example 1052, N-3-isoxazolyl-1-(3-methoxy-2′-(trifluoromethyl)-4-biphenylyl)-2-oxo-1,2-dihydro-6-quinolinesulfonamide], which IC50 [1] is on record?
Answer: 54 nM

Question: With `COc1cc(-c2cccc(OC(F)(F)F)c2)ccc1-n1c(=O)ccc2cc(S(=O)(=O)Nc3ccon3)ccc21` [Example 781, N-3-isoxazolyl-1-(3-methoxy-3′-(trifluoromethoxy)-4-biphenylyl)-2-oxo-1,2-dihydro-6-quinolinesulfonamide] as the compound, how does the IC50 (in-vitro Nav 1.7 PX data) read?
Answer: 10 nM

Question: For `COc1cc(-c2cc(F)cnc2OC)c(F)cc1-n1c(=O)ccc2cc(S(=O)(=O)Nc3ccon3)ccc21` [Example 531, 1-(5-fluoro-4-(5-fluoro-2-methoxy-3-pyridinyl)-2-methoxyphenyl)-N-3-isoxazolyl-2-oxo-1,2-dihydro-6-quinolinesulfonamide], which IC50 (in-vitro PatchXpress (PX)) is on record?
Answer: 342 nM

Question: `COc1cc(-c2ccc(Cl)c(C)c2)c(F)cc1-n1c(=O)ccc2cc(S(=O)(=O)Nc3ccsn3)ccc21` [Example 1073, 1-(4′-chloro-2-fluoro-5-methoxy-3′-methyl-4-biphenylyl)-N-3-isothiazolyl-2-oxo-1,2-dihydro-6-quinolinesulfonamide] was tested. Which IC50 (in-vitro Nav 1.7 PX data) did it give?
Answer: 23 nM

Question: Which IC50 (in-vitro Nav 1.7 PX data) does the source give for `COc1ccc(-c2cc(F)cc(Cl)c2)cc1-n1c(=O)ccc2cc(S(=O)(=O)Nc3ccon3)ccc21` [Example 858, 1-(3′-chloro-5′-fluoro-4-methoxy-3-biphenylyl)-N-3-isoxazolyl-2-oxo-1,2-dihydro-6-quinolinesulfonamide] here?
Answer: 25 nM

Question: With `COc1cc(-c2cccc(C#N)c2)c(F)cc1-n1c(=O)ccc2cc(S(=O)(=O)Nc3ccon3)ccc21` (atropisomer, axis not shown; (M)) [Example 499, (M)-1-(3′-cyano-2-fluoro-5-methoxy-4-biphenylyl)-N-3-isoxazolyl-2-oxo-1,2-dihydro-6-quinolinesulfonamide] as the compound, how does the IC50 (in-vitro PatchXpress (PX)) read?
Answer: 24800 nM

Question: How did the IC50 turn out when `COc1nc(-c2ccc(F)cc2)c(Cl)cc1-n1c(=O)ccc2cc(S(=O)(=O)Nc3ccon3)ccc21` (atropisomer, axis not shown; (P)) [Example 1203, (P)-1-(5-chloro-6-(4-fluorophenyl)-2-methoxy-3-pyridinyl)-N-3-isoxazolyl-2-oxo-1,2-dihydro-6-quinolinesulfonamide] was run?
Answer: 187 nM

Question: `COc1cc(-c2ccc(Cl)c(C)c2)c(F)cc1-n1c(=O)ccc2cc(S(=O)(=O)Nc3cnsn3)ccc21` [Example 1072, 1-(4′-chloro-2-fluoro-5-methoxy-3′-methyl-4-biphenylyl)-2-oxo-N-1,2,5-thiadiazol-3-yl-1,2-dihydro-6-quinolinesulfonamide] was tested. Which IC50 (in-vitro Nav 1.7 PX data) did it give?
Answer: 18 nM

Question: `COc1ccc(C)cc1-c1ccc(-n2c(=O)ccc3cc(S(=O)(=O)Nc4ccon4)ccc32)c(OC)c1` [Example 1036, 1-(2′,3-dimethoxy-5′-methyl-4-biphenylyl)-N-3-isoxazolyl-2-oxo-1,2-dihydro-6-quinolinesulfonamide] was tested. Which IC50 [1] did it give?
Answer: 20 nM

Question: Which IC50 [1] does the source give for `COc1cc(-c2cccc(Cl)c2F)ccc1-n1c(=O)ccc2cc(S(=O)(=O)Nc3ccon3)ccc21` [Example 1057, 1-(3′-chloro-2′-fluoro-3-methoxy-4-biphenylyl)-N-3-isoxazolyl-2-oxo-1,2-dihydro-6-quinolinesulfonamide] here?
Answer: 11 nM
